{"source": "paper PMC7461116", "about": "“Synthesis, Anticonvulsant and Antinociceptive Activity of New Hybrid Compounds: Derivatives of 3-(3-Methylthiophen-2-yl)-pyrrolidine-2,5-dione” (International Journal of Molecular Sciences, 2020)", "origin": "cited, not measured here", "settings_in_all_cases": "cited from earlier work", "key": {"[1]": {"system": "maximal electroshock seizures"}, "[2]": {"system": "PTZ-induced clonic seizures", "parameters": "method as in PMID 25933955"}, "[3]": {"system": "latency time to pain reaction", "parameters": "method as in PMID 25933955"}, "[4]": {"system": "motor impairment on rotarod"}}}
{"compound": "Cc1ccsc1C(=CCCN1CCC[C@@H](C(=O)O)C1)c1sccc1C", "note": "[tiagabine]", "values": [{"measurement": "MES: protection in words", "setting": "[1]", "value": "did not show protection"}, {"measurement": "scPTZ: activity in words", "setting": "[2]", "value": "active"}, {"measurement": "Hot plate: dose at which analgesic activity was observed", "setting": "[3]", "value": 8, "unit": "mg/kg"}, {"measurement": "Rotarod: motor impairment in words", "setting": "[4]", "value": "significant motor impairment"}]}
